Data taken from patent US9427442B2, “Fluoroalkyl and fluorocycloalkyl 1,4-benzodiazepinone compounds” (BRISTOL-MYERS SQUIBB COMPANY, priority 2012, dated 2016).

What was measured:
[1] = Human metabolic stability half-life assay; assay type: in vitro ADME; conditions: human liver microsomes, NADPH, 0.5 μM compound, 45-minute time course; for half-life at 0.5 µM: pH 7.4, read-out: HLM (t1/2, min)
Excerpt: Metabolic Stability Half-Life Panel

human Notch 1 = assay: Notch-CBF1 Transactivation Assay (Notch 1); assay type: cell-based; conditions: read-out: Notch 1 (IC50); HeLa cells transfected with truncated Notch 1 and CBF1 luciferase reporter; 18 hours; average of N experiments
Excerpt: (§1) Notch-CBF1 Transactivation Assay
(§2) The Notch-CBF1 (C-promoter binding factor I) cell based transactivation assay is based on the ability of the released Notch intracellular domain fragments (NICDs) to function as transcription factors in conjunction with CBF1 and other nuclear factors. Luciferase assays were used to measure the antagonism of Notch-CBF1 transcriptional activity. HeLa cervical cancer cells are transiently co-transfected with pCDNA3.1/Hygro plasmids containing truncated Notch 1, Notch 2, Notch 3, or Notch 4 receptors and a PGL3 luciferase reporter vector containing 4 copies of CBF1 binding site. The cells were then tested for Notch-CBF1 activity in the absence or presence of test compounds. HeLa cells, maintained in DMEM (high glucose with HEPES), 1× glutamine/penicillin/streptomycin and 10% Fetal Bovine serum, were transiently transfected in a T175 Flask (4.5×10^6 cells/flask) using the Monster Transfection Kit (Minis #MIR2906) according to manufacturers specifications. Table 5 denotes respective DNA quantity for the transfections.
(§3) Assay media (5 μL) containing test compounds in final concentrations ranging from 5 μM to 8.4×10^−5 μM (3 fold serial dilutions) were added to the cells and the cell plates were then incubated for 18 hours at 37° C. and 5% CO2. Control wells contained DMSO vehicle (total counts) or 0.5 μM of an in-house small molecule inhibitor (background counts). Duplicates were used for each sample. Luciferase activity was measured after a 20-minute incubation with 50 μl STEADY-GLO® luciferase reagents according to manufacturer's specifications (Promega, Cat. #E2550) and analyzed by Envision plate reader (PerkinElmer, Boston, Mass.).
(§4) The antagonist effect of compounds was expressed as 100×[1−(average sample−average background)/(average total−average background)] where sample is the luciferase activity in the presence of test compound, background is equal to the luciferase activity in the presence of the small molecule inhibitor control and the total is signal induced in DMSO wells.

human Notch 3 = assay: Notch-CBF1 Transactivation Assay (Notch 3); assay type: cell-based; conditions: read-out: Notch 3 (IC50); HeLa cells transfected with truncated Notch 3 and CBF1 luciferase reporter; 18 hours; average of N experiments
Excerpt: as §1, §2, §3, §4

SMILES	HLM (t1/2, min) [1] [min]	IC50 (human Notch 1) [nM]	IC50 (human Notch 3) [nM]	half-life at 0.5 µM [1] [min]
CCC[C@H](C(N)=O)[C@@H](CC(C)C)C(=O)N[C@H]1N=C(c2ccccc2)c2ccccc2N(C)C1=O [Comparative Compound 26, reference compound]	8			
C=CC[C@H](C(N)=O)[C@@H](CC(C)C)C(=O)N[C@H]1N=C(c2ccccc2)c2cc(Cl)ccc2N(C)C1=O [Comparative Compound 27, reference compound]	6			
CCCC[C@H](C(N)=O)[C@@H](CC(C)C)C(=O)N[C@H]1N=C(c2ccc(Cl)cc2)c2ccccc2N(C)C1=O [Comparative Compound 28, reference compound]	6			
C=CC[C@H](C(N)=O)[C@@H](CC(C)C)C(=O)N[C@H]1N=C(c2ccccc2)c2ccccc2N(CCC)C1=O [Comparative Compound 29, reference compound]	3			
COc1cccc2c1NC(=O)[C@@H](NC(=O)[C@H](CCC(F)(F)F)[C@@H](C(N)=O)C1CCC(F)(F)CC1)N=C2c1ccccc1 [Example 2, (2R,3S)-3-(4,4-Difluorocyclohexyl)-N-((3S)-9-methoxy-2-oxo-5-phenyl-2,3-dihydro-1H-1,4-benzodiazepin-3-yl)-2-(3,3,3-trifluoropropyl)succinamide]		7	6	43
NC(=O)[C@@H](C1CCC(F)(F)CC1)[C@@H](CCC(F)(F)F)C(=O)N[C@H]1N=C(c2cccc(F)c2)c2cccc(OC3CC3)c2NC1=O [Example 3, (2R,3S)—N-((3S)-9-(Cyclopropyloxy)-5-(3-fluorophenyl)-2-oxo-2,3-dihydro-1H-1,4-benzodiazepin-3-yl)-3-(4,4-difluorocyclohexyl)-2-(3,3,3-trifluoropropyl)succinamide]		4.2	8.9	80
NC(=O)[C@@H](C1CCC(C(F)(F)F)CC1)[C@@H](CCC(F)(F)F)C(=O)N[C@H]1N=C(c2ccccc2)c2cccc(Cl)c2NC1=O (stereo partly drawn) [Example 4, (2R,3S)—N-((3S)-9-Chloro-2-oxo-5-phenyl-2,3-dihydro-1H-1,4-benzodiazepin-3-yl)-3-(4-(trifluoromethyl)cyclohexyl)-2-(3,3,3-trifluoropropyl)succinamide]		11.9	21.2	> 120
NC(=O)[C@@H](C1CCC(F)(F)CC1)[C@@H](CCC(F)(F)F)C(=O)N[C@H]1N=C(c2ccccc2)c2cccc(Cl)c2NC1=O [Example 5, (2R,3S)—N-((3S)-9-Chloro-2-oxo-5-phenyl-2,3-dihydro-1H-1,4-benzodiazepin-3-yl)-3-(4,4-difluorocyclohexyl)-2-(3,3,3-trifluoropropyl)succinamide]		4.4	7.3	72
NC(=O)[C@@H](C1CC(F)(F)C1)[C@@H](CCC(F)(F)F)C(=O)N[C@H]1N=C(c2ccccc2)c2ccccc2NC1=O [Example 6]		14	18.9	> 120
NC(=O)[C@@H](CC1CC(F)(F)C1)[C@@H](CCC(F)(F)F)C(=O)N[C@H]1N=C(c2ccccc2)c2cccc(OC3CC3)c2NC1=O [Example 7, (2R,3S)—N-((3S)-9-(Cyclopropyloxy)-2-oxo-5-phenyl-2,3-dihydro-1H-1,4-benzodiazepin-3-yl)-3-((3,3-difluorocyclobutyl)methyl)-2-(3,3,3-trifluoropropyl)succinamide]		3.9	2.1	> 120
COc1cccc2c1NC(=O)[C@@H](NC(=O)[C@H](CCC(F)(F)F)[C@H](CC1CC(F)(F)C1)C(N)=O)N=C2c1ccccc1 [Example 8, (2R,3S)-3-((3,3-Difluorocyclobutyl)methyl)-N-((3S)-9-methoxy-2-oxo-5-phenyl-2,3-dihydro-1H-1,4-benzodiazepin-3-yl)-2-(3,3,3-trifluoropropyl)succinamide]		2.9	4	58
Cc1cccc2c1NC(=O)[C@@H](NC(=O)[C@H](CCC(F)(F)F)[C@H](CC1CC(F)(F)C1)C(N)=O)N=C2c1cccc(F)c1 [Example 9, (2R,3S)-3-((3,3-Difluorocyclobutyl)methyl)-N-((3S)-5-(3-fluorophenyl)-9-methyl-2-oxo-2,3-dihydro-1H-1,4-benzodiazepin-3-yl)-2-(3,3,3-trifluoropropyl)succinamide]		3.5	3.2	91
Cc1cccc(C2=N[C@H](NC(=O)[C@H](CCC(F)(F)F)[C@H](CC3CC(F)(F)C3)C(N)=O)C(=O)Nc3c(Cl)cccc32)c1 [Example 10, (2R,3S)—N-((3S)-9-Chloro-5-(3-methylphenyl)-2-oxo-2,3-dihydro-1H-1,4-benzodiazepin-3-yl)-3-((3,3-difluorocyclobutyl)methyl)-2-(3,3,3-trifluoropropyl)succinamide]		1.7	4.4	69
Cc1cccc(C2=N[C@H](NC(=O)[C@H](CCC(F)(F)F)[C@H](CC3CC(F)(F)C3)C(N)=O)C(=O)Nc3c(F)cccc32)c1 [Example 11, (2R,3S)-3-((3,3-Difluorocyclobutyl)methyl)-N-((3S)-9-fluoro-5-(3-methylphenyl)-2-oxo-2,3-dihydro-1H-1,4-benzodiazepin-3-yl)-2-(3,3,3-trifluoropropyl)succinamide]		2.1	2.2	46
NC(=O)[C@@H](CC1CC(F)(F)C1)[C@@H](CCC(F)(F)F)C(=O)N[C@H]1N=C(c2ccccc2)c2cccc(C3CC3)c2NC1=O [Example 12, (2R,3S)—N-((3S)-9-Cyclopropyl-2-oxo-5-phenyl-2,3-dihydro-1H-1,4-benzodiazepin-3-yl)-3-((3,3-difluorocyclobutyl)methyl)-2-(3,3,3-trifluoropropyl)succinamide]		5.6	4.3	41
NC(=O)[C@@H](CC1CC(F)(F)C1)[C@@H](CCC(F)(F)F)C(=O)N[C@H]1N=C(c2ccccc2)c2cccc(Cl)c2NC1=O [Example 13, (2R,3S)—N-((3S)-9-Chloro-2-oxo-5-phenyl-2,3-dihydro-1H-1,4-benzodiazepin-3-yl)-3-((3,3-difluorocyclobutyl)methyl)-2-(3,3,3-trifluoropropyl)succinamide]		2.8	2.4	> 120
NC(=O)[C@@H](CC1CC(F)(F)C1)[C@@H](CCC(F)(F)F)C(=O)N[C@H]1N=C(c2ccccc2)c2cccc(F)c2NC1=O [Example 14, (2R,3S)-3-((3,3-Difluorocyclobutyl)methyl)-N-((3S)-9-fluoro-2-oxo-5-phenyl-2,3-dihydro-1H-1,4-benzodiazepin-3-yl)-2-(3,3,3-trifluoropropyl)succinamide]		4.5	1.4	> 120
NC(=O)[C@@H](CC1CC(F)(F)C1)[C@@H](CCC(F)(F)F)C(=O)N[C@H]1N=C(c2ccccc2)c2ccccc2NC1=O [Example 15, (2R,3S)-3-((3,3-Difluorocyclobutyl)methyl)-N-((3S)-2-oxo-5-phenyl-2,3-dihydro-1H-1,4-benzodiazepin-3-yl)-2-(3,3,3-trifluoropropyl)succinamide]		4.4	3.8	35
COc1cccc2c1NC(=O)[C@@H](NC(=O)[C@H](CCC(F)(F)F)[C@H](CCCF)C(N)=O)N=C2c1ccccc1 [Example 16, (2R,3S)-3-(3-Fluoropropyl)-N-((3S)-9-methoxy-2-oxo-5-phenyl-2,3-dihydro-1H-1,4-benzodiazepin-3-yl)-2-(3,3,3-trifluoropropyl)succinamide]		7	15.4	88
COc1ccc2c(c1)NC(=O)[C@@H](NC(=O)[C@H](CCC(F)(F)F)[C@H](CCCF)C(N)=O)N=C2c1ccccc1 [Example 17, (2R,3S)-3-(3-Fluoropropyl)-N-((3S)-8-methoxy-2-oxo-5-phenyl-2,3-dihydro-1H-1,4-benzodiazepin-3-yl)-2-(3,3,3-trifluoropropyl)succinamide]		5.8	11	> 120
CC(F)(F)C[C@H](C(N)=O)[C@@H](CCC(F)(F)F)C(=O)N[C@H]1N=C(c2ccccc2)c2ccccc2NC1=O [Example 18, (2R,3S)-3-(2,2-Difluoropropyl)-N-((3S)-2-oxo-5-phenyl-2,3-dihydro-1H-1,4-benzodiazepin-3-yl)-2-(3,3,3-trifluoropropyl)succinamide]		2.7	10.8	> 120
